# Laboratory results: patent US10660876B2, “Amino compounds for treatment of medical disorders” (Achillion Pharmaceuticals, Inc., priority 2015, dated 2020)
# Read-outs that look alike come from different tables or passages of the source.
# Target: Human Factor D (Homo sapiens (Human), UniProt P00746)
# Experiment: Human Factor D Assay
# Format: biochemical
# Conditions: Factor D purified from human serum, 80 nM, substrate Z-L-Lys-SBzl
# Outline: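 Serum-purified human Factor D (80 nM final) preincubated with compound for 5 min at room temperature in 50 mM Tris, 1 M NaCl, pH 7.5. Z-L-Lys-SBzl and DTNB added at 100 μM each; A405 read every 30 s for 30 min. IC50 by nonlinear regression of reaction rates.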
# [1] = Table 3, read-out: IC50 (Stars)
# Human Factor D, sequence (P00746 26-253): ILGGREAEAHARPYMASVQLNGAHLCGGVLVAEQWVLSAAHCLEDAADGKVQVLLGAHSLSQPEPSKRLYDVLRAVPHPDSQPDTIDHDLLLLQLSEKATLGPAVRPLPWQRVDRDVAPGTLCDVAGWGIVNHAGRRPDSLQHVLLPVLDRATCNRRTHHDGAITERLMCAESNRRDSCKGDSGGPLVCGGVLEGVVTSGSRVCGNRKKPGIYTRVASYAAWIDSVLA
SMILES,"IC50 (Table 1, read-out: IC50)",also measured
"CC(=O)c1cn(CC(=O)N2C[C@H](F)C[C@H]2C(=O)Nc2nc(-c3cccc(Cl)c3)ns2)c2ccc(Nc3cncnc3)cc12 [Compound 60, (2S,4R)-1-(2-(3-acetyl-5-(pyrimidin-5-ylamino)-1H-indol-1-yl)acetyl)-N-(3-(3-chlorophenyl)-1,2,4-thiadiazol-5-yl)-4-fluoropyrrolidine-2-carboxamide]",> 10000 nM,–
"Cc1cccc(NC(=O)[C@@H]2[C@@H]3CCC(C3)N2C(=O)Cn2cc(C(N)=O)c3cc(Nc4ccc(Cl)nn4)ccc32)n1 [Compound 162, 5-((6-chloropyridazin-3-yl)amino)-1-(2-((3S,4R)-3-((6-methylpyridin-2-yl)carbamoyl)-2-azabicyclo[2.2.1]heptan-2-yl)-2-oxoethyl)-1H-indole-3-carboxamide]",–,IC50 [1]: < 1000 nM
"CC(=O)c1cn(CC(=O)N2C[C@H](F)C[C@H]2C(=O)N[C@@H]2CCC[C@H]2O)c2ccc(Nc3cncnc3)cc12 [Compound 69, (2S,4R)-1-(2-(3-acetyl-5-(pyrimidin-5-ylamino)-1H-indol-1-yl)acetyl)-4-fluoro-N-((1R,2R)-2-hydroxy-cyclopentyl) pyrrolidine-2-carboxamide]",1000 to 10000 nM,–
"CC(=O)c1cn(CC(=O)N2C[C@H](F)C[C@H]2C(=O)NCc2ccccc2)c2ccc(Nc3cncnc3)cc12 [Compound 153, (2S,4R)-1-(2-(3-acetyl-5-(pyrimidin-5-ylamino)-1H-indol-1-yl)acetyl)-N-benzyl-4-fluoropyrrolidine-2-carboxamide]",–,IC50 [1]: < 1000 nM
"COCCOc1ncc(Nc2ccc3c(c2)c(C(C)=O)cn3CC(=O)N2C[C@H](F)C[C@H]2C(=O)Nc2cccc(Br)n2)cn1 [Compound 76, (2S,4R)-1-(2-(3-acetyl-5-(2-(2-methoxyethoxy)pyrimidin-5-ylamino)-1H-indol-1-yl)acetyl)-N-(6-bromopyridin-2-yl)-4-fluoropyrrolidine-2-carboxamide]",–,"IC50 (Table 2, read-out: IC50): < 1000 nM"
"NC(=O)c1nn(CC(=O)N2C[C@H](F)C[C@H]2C(=O)Nc2cccc(-c3ccccc3Cl)c2F)c2ccc(Nc3cncnc3)cc12 [Compound 10, 1-(2-((2S,4R)-2-(2′-chloro-2-fluorobiphenyl-3-ylcarbamoyl)-4-fluoropyrrolidin-1-yl)-2-oxoethyl)-5-(pyrimidin-5-ylamino)-1H-indazole-3-carboxamide]",< 1000 nM,–
"CC(=O)c1cn(CC(=O)N2C[C@H](F)C[C@H]2C(=O)Nc2cccc(-c3ccccc3Cl)c2F)c2ccc(N(COC(=O)C(C)(C)C)c3cncnc3)cc12 [Compound 15, ((3-acetyl-1-(2-((2S,4R)-2-(2′-chloro-2-fluorobiphenyl-3-ylcarbamoyl)-4-fluoropyrrolidin-1-yl)-2-oxoethyl)-1H-indol-5-yl)(pyrimidin-5-yl)amino)methyl pivalate]",1000 to 10000 nM,–
"CC(=O)c1cn(CC(=O)N2C[C@H](F)C[C@H]2C(=O)Nc2cncc(Cl)n2)c2ccc(Nc3cncnc3)cc12 [Compound 33, (2S,4R)-1-(2-(3-acetyl-5-(pyrimidin-5-ylamino)-1H-indol-1-yl)acetyl)-N-(6-chloropyrazin-2-yl)-4-fluoropyrrolidine-2-carboxamide]",< 1000 nM,–
